Measurements: patent US20100000032A1, “PHENOXAZINE DYES” (Wetlands Incubator sprl, priority 2008, published 2010)

Experiments:
[1] = Light fastness of dyeing, ISO 105 B02; format: physicochemical; conditions: polyamide 6 knitted fabric, rating 5 = no colour change, 1 = high colour change
Method: (§1) The fastness properties of the dyeings (textile and leather) were measured in accordance with ISO standards mentioned in Table 3. The results shown in Table 3 are the visual assessment described in ISO105-A02: 1993 textiles—test for colour fastness—part A02. On this scale, a rating of 5 means no colour change and a rating of 1 means a high colour change.

[2] = Washing fastness of dyeing, ISO 105 C06: A2S; format: physicochemical; conditions: for Washing fastness, staining, acrylic / Washing fastness, staining, cellulose acetate / Washing fastness, staining, cotton / Washing fastness, staining, nylon / Washing fastness, staining, polyester / Washing fastness, staining, wool: rating 1-5; for Washing fastness, colour change: polyamide 6 knitted fabric, rating 5 = no colour change, 1 = high colour change
Method: as §1

[3] = Water fastness of dyeing, ISO 105 E01; format: physicochemical; conditions: for Water fastness, staining, acrylic / Water fastness, staining, cellulose acetate / Water fastness, staining, cotton / Water fastness, staining, nylon / Water fastness, staining, polyester / Water fastness, staining, wool: rating 1-5; for Water fastness, colour change: polyamide 6 knitted fabric, rating 5 = no colour change, 1 = high colour change
Method: as §1

[4] = Chlorinated water fastness of dyeing, ISO 105 E03; format: physicochemical; conditions: polyamide 6 knitted fabric, rating 5 = no colour change, 1 = high colour change
Method: as §1

[5] = tested on: Caco-2 human intestinal cell line; assay: In vitro toxicity, neutral red uptake; format: cell-based; conditions: concentration at which 50% of the cells die, exposure at least 48 hr, highest concentration tested 0.5 g/L
Method: (§2) The toxicity of compounds 17 and 18 were assessed with an in vitro method using the Caco-2 human intestinal cell line and the rainbow trout gonad (RTG-2) fish cell line. […] Subsequently, the cells were exposed to a series of concentrations of the test compounds, and two blanks, for at least 48 hr until 90% confluence was attained in the blanks. The highest concentration tested being 0.5 g/L. Thereafter, the exposure medium containing the test compounds was decanted and the cells in the microplate wells were gently washed with phosphate buffered saline solution. In order to measure the number of viable cells remaining after the exposure to the test compounds, the cells were exposed to a solution of neutral red in cell culture medium for 3 hr. […] Finally, the neutral red solution was decanted, the wells were again gently washed and then a solution of 1% acetic acid in 50% ethanol was added to the wells to dissolve the neutral red taken up by the viable cells. The absorbance of each well at 540 nm was measure with an appropriate microplate reader. The amount of neutral red present in each well is an indication of the number of viable cells and when compared to the values for the blanks can be used to calculate a percentage of cell death. An IC50 value, the concentration of the test compounds at which 50% of the cells die, can be determined if at least one of the tested compounds produces more than 50% cell death and at least one produces less; the results concerning compounds 17 and 18 are given in Table 4. If none of the tested concentrations produces more than 50% cell death, than an estimating can be made if at least some effect is noticeable. Comparing IC50 values among test compounds and with known toxicants allows for an assessment of their relative toxicities.

[6] = tested on: rainbow trout gonad (RTG-2) fish cell line; assay: In vitro toxicity, neutral red uptake; format: cell-based; conditions: Oncorhynchus mykiss, concentration at which 50% of the cells die, exposure at least 48 hr, highest concentration tested 0.5 g/L, read-out: NRTG-2 cells IC50
Method: as §2

Nc1cc2nc3cc(S(=O)(=O)O)ccc3oc-2cc1=O [Compound 18, 2-Amino-3oxo-3H-phenoxazine-8-sulfonic acid]
Light fastness ([1]; 1% omf): 3 | Washing fastness, staining, acrylic ([2]; 1% omf): 4/5 | Washing fastness, staining, cellulose acetate ([2]; 1% omf): 4/5 | Washing fastness, staining, cotton ([2]; 1% omf): 4/5 | Washing fastness, staining, nylon ([2]; 1% omf): 4/5 | Washing fastness, staining, polyester ([2]; 1% omf): 4/5 | Washing fastness, staining, wool ([2]; 1% omf): 4/5 | Washing fastness, colour change ([2]; 1% omf): 4 | Water fastness, staining, acrylic ([3]; 1% omf): 4/5 | Water fastness, staining, cellulose acetate ([3]; 1% omf): 4 | Water fastness, staining, cotton ([3]; 1% omf): 4 | Water fastness, staining, nylon ([3]; 1% omf): 3 | Water fastness, staining, polyester ([3]; 1% omf): 4/5 | Water fastness, staining, wool ([3]; 1% omf): 2/3 | Water fastness, colour change ([3]; 1% omf): 4 | Chlorinated water fastness, colour change ([4]; 1% omf): 3/4 | IC50 [5]: > 686 µg/mL

Nc1c(S(=O)(=O)O)c2nc3c(S(=O)(=O)O)cccc3oc-2cc1=O [Compound 17, 2-Amino-3oxo-3H-phenoxazine-1,9-disulfonic acid]
Light fastness ([1]; 2% omf): >3 | Washing fastness, staining, acrylic ([2]; 2% omf): 4/5 | Washing fastness, staining, cellulose acetate ([2]; 2% omf): 4/5 | Washing fastness, staining, cotton ([2]; 2% omf): 4/5 | Washing fastness, staining, nylon ([2]; 2% omf): 3/4 | Washing fastness, staining, polyester ([2]; 2% omf): 4/5 | Washing fastness, staining, wool ([2]; 2% omf): 4 | Washing fastness, colour change ([2]; 2% omf): 3 | Water fastness, staining, acrylic ([3]; 2% omf): 4/5 | Water fastness, staining, cellulose acetate ([3]; 2% omf): 4/5 | Water fastness, staining, cotton ([3]; 2% omf): 4/5 | Water fastness, staining, nylon ([3]; 2% omf): 3/4 | Water fastness, staining, polyester ([3]; 2% omf): 4/5 | Water fastness, staining, wool ([3]; 2% omf): 4 | Water fastness, colour change ([3]; 2% omf): 3 | Chlorinated water fastness, colour change ([4]; 2% omf): 3 | IC50 [5]: > 550 µg/mL | IC50 [6]: > 780 µg/mL
